Experimental data taken from ChEMBL document CHEMBL1141584, “Synthesis, biological evaluation and molecular modelling studies of methyleneimidazole substituted biaryls as inhibitors of human 17alpha-hydroxylase-17,20-lyase (CYP17). Part I: Heterocyclic modifications of the core structure” (Bioorg Med Chem, 2008).

What was measured:
Rattus norvegicus [1] = experiment: Reduction of testosterone level in Wistar rat plasma at 50 mg/kg, po after 1 hr by ELISA relative to pretreatment value; type: functional; parameters: scale not given: the % may be the effect or the level left
CYP2B6 [2] = biological target: T1, CYP2B6 (Homo sapiens, UniProt P20813); experiment: Inhibition of recombinant CYP2B6 at 1 uM; type: ADME
T1 sequence (P20813 whole entry): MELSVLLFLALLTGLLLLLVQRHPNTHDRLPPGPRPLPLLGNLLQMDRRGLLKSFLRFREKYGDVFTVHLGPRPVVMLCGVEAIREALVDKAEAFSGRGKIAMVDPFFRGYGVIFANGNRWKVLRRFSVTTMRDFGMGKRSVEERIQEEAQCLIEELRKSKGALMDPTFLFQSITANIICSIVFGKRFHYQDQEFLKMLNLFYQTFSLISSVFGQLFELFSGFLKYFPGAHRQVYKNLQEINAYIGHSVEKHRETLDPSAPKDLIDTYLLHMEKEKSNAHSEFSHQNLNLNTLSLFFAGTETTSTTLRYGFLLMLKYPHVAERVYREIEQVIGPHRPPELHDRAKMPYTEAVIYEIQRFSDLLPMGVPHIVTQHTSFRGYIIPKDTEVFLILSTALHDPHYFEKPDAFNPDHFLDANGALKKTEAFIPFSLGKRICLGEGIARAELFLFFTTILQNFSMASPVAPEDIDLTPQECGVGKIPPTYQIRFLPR

Rattus norvegicus [3] = experiment: Reduction of testosterone level in Wistar rat at 50 mg/kg, po after 4 hrs by ELISA relative to pretreatment value; type: functional; parameters: scale not given: the % may be the effect or the level left
[4] = Cmax in Wistar rat at 50 mg/kg, po; type: ADME, organism-based; parameters: dose 50 mg/kg, route oral; settings: in vivo
[5] = biological target: T2, Steroid 17-alpha-hydroxylase/17,20 lyase (Homo sapiens, UniProt P05093); experiment: Inhibition of human CYP17 expressed in Escherichia coli co-expressed with NADPH-P450 reductase
T2 sequence (P05093 whole entry): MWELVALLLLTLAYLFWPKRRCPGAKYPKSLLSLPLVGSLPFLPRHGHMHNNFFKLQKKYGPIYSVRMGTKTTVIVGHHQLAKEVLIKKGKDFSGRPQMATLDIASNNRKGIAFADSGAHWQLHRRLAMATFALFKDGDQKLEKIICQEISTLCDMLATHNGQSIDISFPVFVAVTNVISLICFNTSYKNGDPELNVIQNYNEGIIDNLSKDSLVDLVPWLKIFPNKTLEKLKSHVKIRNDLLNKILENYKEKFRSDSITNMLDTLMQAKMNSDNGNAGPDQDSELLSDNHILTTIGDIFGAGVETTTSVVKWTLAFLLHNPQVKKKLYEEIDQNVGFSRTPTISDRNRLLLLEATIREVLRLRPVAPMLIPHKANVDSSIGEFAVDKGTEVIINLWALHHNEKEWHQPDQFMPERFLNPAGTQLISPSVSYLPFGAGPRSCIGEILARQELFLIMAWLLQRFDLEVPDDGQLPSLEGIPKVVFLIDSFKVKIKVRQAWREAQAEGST

[6] = Tmax in Wistar rat at 50 mg/kg, po; type: ADME, organism-based; parameters: dose 50 mg/kg, route oral; settings: in vivo
Rattus norvegicus [7] = experiment: Reduction of testosterone level in Wistar rat plasma at 50 mg/kg, po after 2 hrs by ELISA relative to pretreatment value; type: functional; parameters: scale not given: the % may be the effect or the level left
CYP2C9 [8] = biological target: T3, CYP2C9 (Homo sapiens, UniProt P11712); experiment: Inhibition of recombinant CYP2C9 at 10 uM; type: ADME
[9] = biological target: T2, Steroid 17-alpha-hydroxylase/17,20 lyase; experiment: Inhibition of human CYP17 expressed in Escherichia coli co-expressed with NADPH-P450 reductase at 2 uM
CYP1A2 [10] = biological target: T4, CYP1A2 (Homo sapiens, UniProt P05177); experiment: Inhibition of recombinant CYP1A2 at 1 uM; type: ADME
T4 sequence (P05177 whole entry): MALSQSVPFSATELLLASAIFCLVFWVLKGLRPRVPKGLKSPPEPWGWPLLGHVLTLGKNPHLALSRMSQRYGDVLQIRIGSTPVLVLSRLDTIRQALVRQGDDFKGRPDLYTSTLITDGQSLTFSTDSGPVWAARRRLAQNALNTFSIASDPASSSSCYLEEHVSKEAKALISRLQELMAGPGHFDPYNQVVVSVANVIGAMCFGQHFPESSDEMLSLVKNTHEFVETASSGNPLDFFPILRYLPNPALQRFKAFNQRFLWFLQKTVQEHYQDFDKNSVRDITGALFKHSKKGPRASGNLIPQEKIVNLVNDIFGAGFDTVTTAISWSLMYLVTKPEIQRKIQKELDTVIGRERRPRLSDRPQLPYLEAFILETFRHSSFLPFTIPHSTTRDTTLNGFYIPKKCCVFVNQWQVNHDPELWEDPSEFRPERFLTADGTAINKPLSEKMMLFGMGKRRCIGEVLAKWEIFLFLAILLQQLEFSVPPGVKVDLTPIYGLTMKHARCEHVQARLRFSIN

[11] = Total body clearance in Wistar rat at 50 mg/kg, po; type: ADME, organism-based; parameters: dose 50 mg/kg, route oral; settings: in vivo
CYP2D6 [12] = biological target: T5, CYP2D6 (Homo sapiens, UniProt P10635); experiment: Inhibition of recombinant CYP2D6 at 1 uM; type: ADME
CYP2C9 [13] = biological target: T3, CYP2C9; experiment: Inhibition of recombinant CYP2C9 at 1 uM; type: ADME
Rattus norvegicus [14] = experiment: Reduction of testosterone level in Wistar rat plasma at 50 mg/kg, po after 8 hrs by ELISA relative to pretreatment value; type: functional; parameters: scale not given: the % may be the effect or the level left
CYP3A4 [15] = biological target: T6, CYP3A4 (Homo sapiens, UniProt P08684); experiment: Inhibition of recombinant CYP3A4 at 1 uM; type: ADME
Rattus norvegicus [16] = experiment: Reduction of testosterone level in Wistar rat plasma at 50 mg/kg, po after 6 hrs by ELISA relative to pretreatment value; type: functional; parameters: scale not given: the % may be the effect or the level left
CYP2C19 [17] = biological target: T7, CYP2C19 (Homo sapiens, UniProt P33261); experiment: Inhibition of recombinant CYP2C19 at 10 uM; type: ADME
CYP2C19 [18] = biological target: T7, CYP2C19; experiment: Inhibition of recombinant CYP2C19 at 1 uM; type: ADME
CYP2B6 [19] = biological target: T1, CYP2B6; experiment: Inhibition of recombinant CYP2B6 at 10 uM; type: ADME
[20] = biological target: T8, Steroid 17-alpha-hydroxylase/17,20 lyase (Rattus norvegicus, UniProt P11715); experiment: Inhibition of Sprague-Dawley rat testicular CYP17
T8 sequence (P11715 whole entry): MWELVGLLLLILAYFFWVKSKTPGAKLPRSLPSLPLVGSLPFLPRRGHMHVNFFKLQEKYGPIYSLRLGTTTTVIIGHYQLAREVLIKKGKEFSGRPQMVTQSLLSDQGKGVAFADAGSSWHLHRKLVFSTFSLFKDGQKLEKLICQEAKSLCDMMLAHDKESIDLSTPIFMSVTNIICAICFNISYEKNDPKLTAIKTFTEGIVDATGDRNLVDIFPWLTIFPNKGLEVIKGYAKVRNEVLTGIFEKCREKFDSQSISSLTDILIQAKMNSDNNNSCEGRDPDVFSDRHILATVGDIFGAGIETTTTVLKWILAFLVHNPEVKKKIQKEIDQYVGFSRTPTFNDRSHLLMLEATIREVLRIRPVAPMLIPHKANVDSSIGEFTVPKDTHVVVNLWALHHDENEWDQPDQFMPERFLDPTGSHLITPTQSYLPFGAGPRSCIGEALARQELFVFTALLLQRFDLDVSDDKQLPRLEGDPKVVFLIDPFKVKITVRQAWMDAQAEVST

CYP1A2 [21] = biological target: T4, CYP1A2; experiment: Inhibition of recombinant CYP1A2 at 10 uM; type: ADME
[22] = Terminal half life in Wistar rat plasma at 50 mg/kg, po; type: ADME, organism-based; parameters: dose 50 mg/kg, route oral
[23] = AUC (0 to infinity) in Wistar rat at 50 mg/kg, po; type: ADME, organism-based; parameters: time infinity, dose 50 mg/kg, route oral; settings: plasma
[24] = biological target: T2, Steroid 17-alpha-hydroxylase/17,20 lyase; experiment: Inhibition of human CYP17 expressed in Escherichia coli co-expressed with NADPH-P450 reductase at 0.2 uM
CYP2D6 [25] = biological target: T5, CYP2D6; experiment: Inhibition of recombinant CYP2D6 at 10 uM; type: ADME
CYP3A4 [26] = biological target: T6, CYP3A4; experiment: Inhibition of recombinant CYP3A4 at 10 uM; type: ADME
Rattus norvegicus [27] = experiment: Reduction of testosterone level in Wistar rat plasma at 56.02 mg/kg, po after 6 hrs by ELISA relative to pretreatment value; type: functional; parameters: scale not given: the % may be the effect or the level left
Rattus norvegicus [28] = experiment: Reduction of testosterone level in Wistar rat plasma at 56.02 mg/kg, po after 1 hr by ELISA relative to pretreatment value; type: functional; parameters: scale not given: the % may be the effect or the level left
Rattus norvegicus [29] = experiment: Reduction of testosterone level in Wistar rat plasma at 56.02 mg/kg, po after 2 hrs by ELISA relative to pretreatment value; type: functional; parameters: scale not given: the % may be the effect or the level left
Rattus norvegicus [30] = experiment: Reduction of testosterone level in Wistar rat plasma at 56.02 mg/kg, po after 8 hrs by ELISA relative to pretreatment value; type: functional; parameters: scale not given: the % may be the effect or the level left
Rattus norvegicus [31] = experiment: Reduction of testosterone level in Wistar rat plasma at 56.02 mg/kg, po after 4 hrs by ELISA relative to pretreatment value; type: functional; parameters: scale not given: the % may be the effect or the level left

T6 sequence (P08684 whole entry): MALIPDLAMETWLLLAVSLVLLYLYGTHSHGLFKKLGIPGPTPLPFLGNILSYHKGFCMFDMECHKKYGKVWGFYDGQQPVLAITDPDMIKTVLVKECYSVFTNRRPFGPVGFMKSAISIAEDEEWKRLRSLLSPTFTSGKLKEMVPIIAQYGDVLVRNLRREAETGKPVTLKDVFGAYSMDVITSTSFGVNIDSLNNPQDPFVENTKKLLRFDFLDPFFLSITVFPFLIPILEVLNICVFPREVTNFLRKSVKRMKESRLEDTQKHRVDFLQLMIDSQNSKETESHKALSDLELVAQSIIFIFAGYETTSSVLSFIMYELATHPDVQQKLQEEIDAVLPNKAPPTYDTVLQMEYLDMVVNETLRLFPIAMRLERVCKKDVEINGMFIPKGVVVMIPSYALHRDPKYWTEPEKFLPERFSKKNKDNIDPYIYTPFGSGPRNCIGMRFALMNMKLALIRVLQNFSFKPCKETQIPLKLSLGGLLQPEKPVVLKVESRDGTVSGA
T7 sequence (P33261 whole entry): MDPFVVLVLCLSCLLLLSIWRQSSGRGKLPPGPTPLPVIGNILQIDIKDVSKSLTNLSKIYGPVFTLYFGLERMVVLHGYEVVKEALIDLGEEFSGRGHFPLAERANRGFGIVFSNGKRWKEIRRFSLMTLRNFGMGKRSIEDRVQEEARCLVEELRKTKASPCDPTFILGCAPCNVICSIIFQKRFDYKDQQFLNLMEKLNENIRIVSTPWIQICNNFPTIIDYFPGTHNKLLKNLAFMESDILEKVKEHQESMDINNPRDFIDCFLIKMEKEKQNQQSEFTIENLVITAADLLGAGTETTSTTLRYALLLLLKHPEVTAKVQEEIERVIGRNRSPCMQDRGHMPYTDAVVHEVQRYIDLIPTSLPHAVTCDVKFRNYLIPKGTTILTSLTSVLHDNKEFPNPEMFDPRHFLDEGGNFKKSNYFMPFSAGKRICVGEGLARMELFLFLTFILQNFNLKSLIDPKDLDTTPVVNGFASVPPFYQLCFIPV
T3 sequence (P11712 whole entry): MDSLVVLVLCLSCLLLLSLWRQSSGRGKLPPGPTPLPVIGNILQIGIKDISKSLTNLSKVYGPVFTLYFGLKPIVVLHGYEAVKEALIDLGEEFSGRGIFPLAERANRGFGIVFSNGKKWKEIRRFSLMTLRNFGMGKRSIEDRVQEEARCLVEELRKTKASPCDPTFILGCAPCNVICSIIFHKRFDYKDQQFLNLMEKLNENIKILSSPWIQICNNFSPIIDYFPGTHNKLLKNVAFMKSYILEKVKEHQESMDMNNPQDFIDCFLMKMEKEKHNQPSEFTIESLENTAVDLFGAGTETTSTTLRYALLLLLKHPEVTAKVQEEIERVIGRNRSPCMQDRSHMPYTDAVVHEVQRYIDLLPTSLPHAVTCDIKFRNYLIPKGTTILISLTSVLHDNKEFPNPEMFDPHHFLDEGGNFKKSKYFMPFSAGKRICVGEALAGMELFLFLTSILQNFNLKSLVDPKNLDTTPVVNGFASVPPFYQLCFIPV
T5 sequence (P10635 whole entry): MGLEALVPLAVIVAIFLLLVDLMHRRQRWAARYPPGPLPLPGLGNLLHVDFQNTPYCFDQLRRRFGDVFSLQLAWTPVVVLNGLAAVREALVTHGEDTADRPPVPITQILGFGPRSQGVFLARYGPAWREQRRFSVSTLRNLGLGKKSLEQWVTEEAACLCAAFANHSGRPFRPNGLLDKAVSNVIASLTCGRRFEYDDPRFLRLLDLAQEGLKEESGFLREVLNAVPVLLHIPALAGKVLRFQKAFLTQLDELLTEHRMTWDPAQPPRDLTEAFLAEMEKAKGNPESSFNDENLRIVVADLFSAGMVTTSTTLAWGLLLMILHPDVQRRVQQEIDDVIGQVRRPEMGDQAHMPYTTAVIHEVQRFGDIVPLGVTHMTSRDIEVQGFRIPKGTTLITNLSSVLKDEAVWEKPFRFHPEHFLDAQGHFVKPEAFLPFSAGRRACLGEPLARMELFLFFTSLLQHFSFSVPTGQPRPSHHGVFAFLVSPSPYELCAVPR

Compound: CCC(c1ccc(-c2ccsc2)cc1)n1ccnc1 (stereo unspecified)
- Activity (Rattus norvegicus [1]): 37.6%
- inhibition at 1 µM (CYP2B6 [2]): 60%
- Activity (Rattus norvegicus [3]): 26.9%
- Cmax [4]: 1740 ng/mL
- IC50 [5]: 0.373 µM
- Tmax [6]: 1 h
- Activity (Rattus norvegicus [7]): 30.5%
- inhibition at 10 µM (CYP2C9 [8]): 74%
- inhibition at 2 µM [9]: 83%
- inhibition at 1 µM (CYP1A2 [10]): 98%
- CL/F [11]: 125 mL/min/kg
- inhibition at 1 µM (CYP2D6 [12]): 24%
- inhibition at 1 µM (CYP2C9 [13]): 81%
- Activity (Rattus norvegicus [14]): 63%
- inhibition at 1 µM (CYP3A4 [15]): 88%
- Activity (Rattus norvegicus [16]): 62.6%
- inhibition at 10 µM (CYP2C19 [17]): 100%
- inhibition at 1 µM (CYP2C19 [18]): 95%
- inhibition at 10 µM (CYP2B6 [19]): 87%
- IC50 [20]: 0.562 µM
- inhibition at 10 µM (CYP1A2 [21]): 100%
- half-life [22]: 3.8 h
- AUC(0-inf) [23]: 6700 ng·h/mL
- inhibition at 0.2 µM [24]: 28%
- inhibition at 10 µM (CYP2D6 [25]): 77%
- inhibition at 10 µM (CYP3A4 [26]): 92%

Compound: CC(=O)O[C@H]1CC[C@@]2(C)C(=CC[C@@H]3[C@@H]2CC[C@]2(C)C(c4cccnc4)=CC[C@@H]32)C1 [ABIRATERONE ACETATE]
- Activity (Rattus norvegicus [27]): 43.3%
- Activity (Rattus norvegicus [28]): 92.5%
- Activity (Rattus norvegicus [29]): 44%
- Activity (Rattus norvegicus [30]): 35.6%
- Activity (Rattus norvegicus [31]): 43.5%
